Experimental data reported in US9617276B2, “Compounds and methods for treating AIDS and HIV infections” (priority 2009, dated 2017).
Like-named read-outs stand apart in the source and are kept apart here.

Columns and labels:
[1] = test system: HIV-1; assay: antiviral assay (IC50); assay type: cell-based; conditions: read-out: IC50
Procedure: (§1) The inhibitory potencies of acyclic and cyclic inhibitors were measured by the assay protocol of Toth and Marshall (Toth, M. V.; Marshall, G. R. A simple, continuous fluorometric assay for HIV protease. Int. J. Pep. Protien Res. 1990, 36, 544-55).

[2] = target: T1, HIV-1 protease (Human immunodeficiency virus type 1 group M subtype B, UniProt P04585); assay: HIV protease enzyme inhibition, fluorometric assay of Toth and Marshall; assay type: biochemical; conditions: read-out: Ki
T1 construct: A simple, continuous fluorometric assay for HIV protease
Procedure: as §1

[3] = Human immunodeficiency virus 1, Table 2
[4] = Human immunodeficiency virus 1, Table 1, acyclic compounds
[5] = Human immunodeficiency virus 1, Table 4
[6] = Human immunodeficiency virus 1, Table 3, E and Z isomers

C=CCCCCOc1cc(OC)ccc1S(=O)(=O)N(CC(C)CC=C)C[C@@H](O)[C@H](Cc1ccccc1)NC(=O)O[C@H]1CO[C@H]2OCC[C@H]21 (single isomer, unassigned) [Compound 19b]
IC50 ([1]; Table 4): < 100 nM
Ki ([2]; Table 4): < 10 nM

COc1ccc2c(c1)OCC/C=C/CN1C(=O)CC[C@@H]1CN(C[C@@H](O)[C@H](Cc1ccccc1)NC(=O)OC(C)(C)C)S2(=O)=O [Compound 00910A]
Ki ([2]; Table 5): > 100 nM

COc1ccc2c(c1)OCCCCCN1C(=O)CC[C@@H]1CN(C[C@@H](O)[C@H](Cc1ccccc1)NC(=O)O[C@H]1CO[C@H]3OCC[C@H]31)S2(=O)=O [Compound 02210A]
Ki ([2]; Table 5): < 1 nM

COc1ccc2c(c1)OCCC=CCN1C(=O)CC[C@H]1CN(C[C@@H](O)[C@H](Cc1ccccc1)NC(=O)O[C@H]1CO[C@H]3OCC[C@H]31)S2(=O)=O [Compound 01410A]
Ki ([2]; Table 5): > 100 nM

COc1ccc2c(c1)OCCCCC=CCC(C)(C)CN(CC(O)C(Cc1ccccc1)NC(=O)OC1COC3OCCC13)S2(=O)=O (stereo not drawn) [Compound 21a]
IC50 ([1]; Table 4): > 1000 nM
Ki ([2]; Table 4): < 10 nM

COc1ccc2c(c1)OCCCCCCCN(CC(O)C(Cc1ccccc1)NC(=O)OC1COC3OCCC13)S2(=O)=O (stereo not drawn) [Compound 15d]
IC50 [1, 3]: < 100 nM
Ki ([2]; Table 2): < 1 nM

C=CCCCCOc1cc(OC)ccc1S(=O)(=O)N(CC=C)CC(O)C(Cc1ccccc1)NC(=O)OC1COC2OCCC12 (stereo not drawn) [Compound 13e]
IC50 [1, 4]: < 100 nM
Ki ([2]; Table 1, acyclic compounds): < 10 nM
Ki [2]: 1.7 nM

COc1ccc2c(c1)OCCCCC=CCC(C)(C)CN(CC(O)C(Cc1ccccc1)NC(=O)OC1COC3OCCC13)S2(=O)=O (stereo not drawn) [Compound 20a]
IC50 [1, 5]: > 1000 nM
Ki ([2]; Table 4): < 100 nM

C=CCCCCN(CC(O)C(Cc1ccccc1)NC(=O)OC1COC2OCCC12)S(=O)(=O)c1ccc(OC)cc1OCC=C (stereo not drawn) [Compound 13d]
Ki ([2]; Table 1, acyclic compounds): < 10 nM

COc1ccc2c(c1)OCCCCCCCCCCN(CC(O)C(Cc1ccccc1)NC(=O)OC1COC3OCCC13)S2(=O)=O (stereo not drawn) [Compound 15a]
IC50 [1, 3]: < 100 nM
Ki ([2]; Table 2): < 1 nM

C=CCOc1cc(OC)ccc1S(=O)(=O)N(CC1CCCN1CC=C)C[C@@H](O)[C@H](Cc1ccccc1)NC(=O)O[C@H]1CO[C@H]2OCC[C@H]21 (stereo partly drawn) [Compound 0659A]
Ki ([2]; Table 5): > 100 nM

COc1ccc2c(c1)OCCCCCCCCCN(CC(O)C(Cc1ccccc1)NC(=O)OC1COC3OCCC13)S2(=O)=O (stereo not drawn) [Compound 15b]
IC50 [1, 3]: < 100 nM
IC50 ([1]; Human immunodeficiency virus 1): < 49 nM
Ki ([2]; Table 2): < 1 nM
Ki [2]: < 0.7 nM

C=CCCCCOc1cc(OC)ccc1S(=O)(=O)N(C[C@@H](O)[C@H](Cc1ccccc1)NC(=O)O[C@H]1CO[C@H]2OCC[C@H]21)CC(C)(C)CC=C [Compound 19a, (3R,3aS,6aR)-Hexahydrofuro[2,3-b]furan-3-yl (2S,3R)-4-(N-(2,2-dimethylpent-4-enyl)-2-(hex-5-enyloxy)-4-methoxyphenylsulfonamido)-3-hydroxy-1-phenylbutan-2-ylcarbamate]
IC50 [1, 5]: > 1000 nM
Ki ([2]; Table 4): < 100 nM

COc1ccc2c(c1)OCC/C=C\CN1C(=O)CC[C@@H]1CN(C[C@@H](O)[C@H](Cc1ccccc1)NC(=O)O[C@H]1CO[C@H]3OCC[C@H]31)S2(=O)=O [Compound 01310A]
Ki ([2]; Table 5): < 100 nM

COc1ccc2c(c1)OCC/C=C/CN1C(=O)CC[C@@H]1CN(C[C@@H](O)[C@H](Cc1ccccc1)NC(=O)O[C@H]1CO[C@H]3OCC[C@H]31)S2(=O)=O [Compound 01210A]
Ki ([2]; Table 5): < 1 nM

C=CCCOc1cc(OC)ccc1S(=O)(=O)N(CC=C)CC(O)C(Cc1ccccc1)NC(=O)OC1COC2OCCC12 (stereo not drawn) [Compound 13g]
Ki ([2]; Table 1, acyclic compounds): < 1 nM

COc1ccc2c(c1)OCC/C=C/CN1CCC[C@H]1CN(C[C@@H](O)[C@H](Cc1ccccc1)NC(=O)O[C@H]1CO[C@H]3OCC[C@H]31)S2(=O)=O [Compound 00810A]
Ki ([2]; Table 5): > 100 nM

C=CCCCOc1cc(OC)ccc1S(=O)(=O)N(CC=C)CC(O)C(Cc1ccccc1)NC(=O)OC1COC2OCCC12 (stereo not drawn) [Compound 13f]
IC50 [1, 4]: < 100 nM
Ki ([2]; Table 1, acyclic compounds): < 1 nM

COc1ccc2c(c1)OCCCCC=CCC(C)CN(CC(O)C(Cc1ccccc1)NC(=O)OC1COC3OCCC13)S2(=O)=O (stereo not drawn) [Compound 21b]
IC50 ([1]; Table 4): < 10 nM
IC50 [1]: 6.3 nM
Ki ([2]; Table 4): < 10 nM
Ki [2]: 2.8 nM

C=CCN1CCCC1CN(C[C@@H](O)[C@H](Cc1ccccc1)NC(=O)O[C@H]1CO[C@H]2OCC[C@H]21)S(=O)(=O)c1ccc(OC)cc1 (stereo partly drawn) [Compound 0649A]
Ki ([2]; Table 5): < 10 nM

C=CCCCCN(CC(O)C(Cc1ccccc1)NC(=O)OC1COC2OCCC12)S(=O)(=O)c1ccc(OC)cc1OCCCC=C (stereo not drawn) [Compound 13b]
IC50 [1, 4]: > 1000 nM
IC50 ([1]; Human immunodeficiency virus 1): > 1000 nM
Ki ([2]; Table 1, acyclic compounds): < 100 nM
Ki [2]: 11 nM

COc1ccc2c(c1)OCC/C=C\CN1C(=O)CC[C@@H]1CN(C[C@@H](O)[C@H](Cc1ccccc1)NC(=O)OC(C)(C)C)S2(=O)=O [Compound 01010A]
Ki ([2]; Table 5): > 100 nM

C=CCCCCOc1cc(OC)ccc1S(=O)(=O)N(CC(C)CC=C)C[C@@H](O)[C@H](Cc1ccccc1)NC(=O)O[C@H]1CO[C@H]2OCC[C@H]21 (single isomer, unassigned) [Compound 19c]
IC50 ([1]; Table 4): > 1000 nM
Ki ([2]; Table 4): < 10 nM

COc1ccc2c(c1)OCCC=CCCCCN(CC(O)C(Cc1ccccc1)NC(=O)OC1COC3OCCC13)S2(=O)=O (stereo not drawn) [Compound 14c-E]
IC50 [1, 6]: < 10 nM

C=CCCCCOc1cc(OC)ccc1S(=O)(=O)N(CCCCC=C)CC(O)C(Cc1ccccc1)NC(=O)OC1COC2OCCC12 (stereo not drawn) [Compound 13a]
IC50 [1, 4]: > 1000 nM
Ki ([2]; Table 1, acyclic compounds): < 100 nM
Ki [2]: 16 nM

COc1ccc2c(c1)OCCCCCN1C(=O)CC[C@H]1CN(C[C@@H](O)[C@H](Cc1ccccc1)NC(=O)O[C@H]1CO[C@H]3OCC[C@H]31)S2(=O)=O [Compound 02110A]
Ki ([2]; Table 5): < 100 nM

COc1ccc2c(c1)OCCCCC=CCCCCN(CC(O)C(Cc1ccccc1)NC(=O)OC1COC3OCCC13)S2(=O)=O (stereo not drawn) [Compound 14a-E]
IC50 ([1]; Table 3, E and Z isomers): < 100 nM
Ki ([2]; Table 3, E and Z isomers): < 1 nM

COc1ccc2c(c1)OCCCC=CCN(CC(O)C(Cc1ccccc1)NC(=O)OC1COC3OCCC13)S2(=O)=O (stereo not drawn) [Compound 14f]
IC50 [1, 3]: < 100 nM
Ki ([2]; Table 2): < 1 nM

COc1ccc2c(c1)OCC=CCN(CC(O)C(Cc1ccccc1)NC(=O)OC1COC3OCCC13)S2(=O)=O (stereo not drawn) [Compound 14h]
Ki ([2]; Table 2): < 10 nM

COc1ccc2c(c1)OCCC=CCN(CC(O)C(Cc1ccccc1)NC(=O)OC1COC3OCCC13)S2(=O)=O (stereo not drawn) [Compound 14g]
Ki ([2]; Table 2): < 1 nM

COc1ccc2c(c1)OCCCCC=CCN(CC(O)C(Cc1ccccc1)NC(=O)OC1COC3OCCC13)S2(=O)=O (stereo not drawn) [Compound 14e]
IC50 [1, 3]: < 100 nM
Ki ([2]; Table 2): < 1 nM

C=CCCCCN(CC(O)C(Cc1ccccc1)NC(=O)OC1COC2OCCC12)S(=O)(=O)c1ccc(OC)cc1OCCC=C (stereo not drawn) [Compound 13c]
Ki ([2]; Table 1, acyclic compounds): < 10 nM

COc1ccc2c(c1)OCCCCC=CCC(C)CN(CC(O)C(Cc1ccccc1)NC(=O)OC1COC3OCCC13)S2(=O)=O (stereo not drawn) [Compound 20b]
IC50 ([1]; Table 4): < 100 nM
Ki ([2]; Table 4): < 10 nM

COc1ccc2c(c1)OCCCCC=CCC(C)CN(CC(O)C(Cc1ccccc1)NC(=O)OC1COC3OCCC13)S2(=O)=O (stereo not drawn) [Compound 21c]
IC50 ([1]; Table 4): < 100 nM
Ki ([2]; Table 4): < 1 nM

COc1ccc2c(c1)OCCCCCCCC(C)CN(CC(O)C(Cc1ccccc1)NC(=O)OC1COC3OCCC13)S2(=O)=O (stereo not drawn) [Compound 22c]
IC50 ([1]; Table 4): < 100 nM
Ki ([2]; Table 4): < 1 nM

COc1ccc2c(c1)OCCCCCN1CCC[C@@H]1CN(C[C@@H](O)[C@H](Cc1ccccc1)NC(=O)O[C@H]1CO[C@H]3OCC[C@H]31)S2(=O)=O [Compound 00610A]
Ki ([2]; Table 5): > 100 nM

COc1ccc2c(c1)OCCCCC=CCC(C)CN(CC(O)C(Cc1ccccc1)NC(=O)OC1COC3OCCC13)S2(=O)=O (stereo not drawn) [Compound 20c]
IC50 ([1]; Human immunodeficiency virus 1): 9 nM
IC50 ([1]; Table 4): < 10 nM
Ki ([2]; Table 4): < 1 nM
Ki [2]: 0.31 nM

COc1ccc2c(c1)OCCCCCCCC(C)(C)CN(CC(O)C(Cc1ccccc1)NC(=O)OC1COC3OCCC13)S2(=O)=O (stereo not drawn) [Compound 22a]
IC50 [1, 5]: > 1000 nM
Ki ([2]; Table 4): < 10 nM

COc1ccc2c(c1)OCCCC=CCCCCN(CC(O)C(Cc1ccccc1)NC(=O)OC1COC3OCCC13)S2(=O)=O (stereo not drawn) [Compound 14b-Z]
IC50 [1, 6]: < 10 nM
Ki ([2]; Table 3, E and Z isomers): < 1 nM

COc1ccc2c(c1)OCCCCCCCC(C)CN(CC(O)C(Cc1ccccc1)NC(=O)OC1COC3OCCC13)S2(=O)=O (stereo not drawn) [Compound 22b]
IC50 ([1]; Table 4): < 1000 nM
Ki ([2]; Table 4): < 1 nM

COc1ccc2c(c1)OCCCCC=CCCCCN(CC(O)C(Cc1ccccc1)NC(=O)OC1COC3OCCC13)S2(=O)=O (stereo not drawn) [Compound 14a-Z]
IC50 ([1]; Table 3, E and Z isomers): > 1000 nM
Ki ([2]; Table 3, E and Z isomers): < 1 nM

COc1ccc2c(c1)OCCCCC=CCCCCN(CC(O)C(Cc1ccccc1)NC(=O)OC1COC3OCCC13)S2(=O)=O (stereo not drawn) [Compound 14a]
IC50 [1, 3]: < 100 nM
Ki ([2]; Table 2): < 1 nM

C=CCN1C(=O)CC[C@@H]1CN(C[C@@H](O)[C@H](Cc1ccccc1)NC(=O)O[C@H]1CO[C@H]2OCC[C@H]21)S(=O)(=O)c1ccc(OC)cc1 [Compound 01110A]
Ki ([2]; Table 5): < 1 nM
